pKd: −log10 of the molar value.
How the values were obtained:
[1] = biological target: soluble recombinant human TLR4 (hTLR4) (Homo sapiens, UniProt O00206); test: biochemical
[2] = biological target: soluble recombinant mouse TLR4 (mTLR4) (Mus musculus, UniProt Q9QUK6); test: biochemical
Sequence of soluble recombinant mouse TLR4 (mTLR4) (Q9QUK6 26-638 limits assumed): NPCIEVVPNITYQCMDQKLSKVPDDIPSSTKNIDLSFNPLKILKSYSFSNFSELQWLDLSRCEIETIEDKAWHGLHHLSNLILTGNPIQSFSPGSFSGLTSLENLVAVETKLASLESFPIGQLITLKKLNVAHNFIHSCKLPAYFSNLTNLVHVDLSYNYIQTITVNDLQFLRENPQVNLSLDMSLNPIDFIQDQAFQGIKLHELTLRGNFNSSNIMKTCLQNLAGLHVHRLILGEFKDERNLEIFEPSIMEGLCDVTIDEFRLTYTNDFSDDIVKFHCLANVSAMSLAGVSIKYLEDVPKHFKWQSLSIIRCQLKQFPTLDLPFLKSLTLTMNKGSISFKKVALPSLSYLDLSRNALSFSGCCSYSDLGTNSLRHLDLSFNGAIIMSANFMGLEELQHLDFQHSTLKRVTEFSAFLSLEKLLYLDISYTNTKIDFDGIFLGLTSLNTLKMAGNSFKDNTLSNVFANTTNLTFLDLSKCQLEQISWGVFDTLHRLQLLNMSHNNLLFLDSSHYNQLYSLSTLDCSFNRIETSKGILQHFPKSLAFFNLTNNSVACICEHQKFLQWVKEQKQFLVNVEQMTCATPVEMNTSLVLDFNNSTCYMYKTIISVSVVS

Sequence of soluble recombinant human TLR4 (hTLR4) (O00206 24-631 limits assumed): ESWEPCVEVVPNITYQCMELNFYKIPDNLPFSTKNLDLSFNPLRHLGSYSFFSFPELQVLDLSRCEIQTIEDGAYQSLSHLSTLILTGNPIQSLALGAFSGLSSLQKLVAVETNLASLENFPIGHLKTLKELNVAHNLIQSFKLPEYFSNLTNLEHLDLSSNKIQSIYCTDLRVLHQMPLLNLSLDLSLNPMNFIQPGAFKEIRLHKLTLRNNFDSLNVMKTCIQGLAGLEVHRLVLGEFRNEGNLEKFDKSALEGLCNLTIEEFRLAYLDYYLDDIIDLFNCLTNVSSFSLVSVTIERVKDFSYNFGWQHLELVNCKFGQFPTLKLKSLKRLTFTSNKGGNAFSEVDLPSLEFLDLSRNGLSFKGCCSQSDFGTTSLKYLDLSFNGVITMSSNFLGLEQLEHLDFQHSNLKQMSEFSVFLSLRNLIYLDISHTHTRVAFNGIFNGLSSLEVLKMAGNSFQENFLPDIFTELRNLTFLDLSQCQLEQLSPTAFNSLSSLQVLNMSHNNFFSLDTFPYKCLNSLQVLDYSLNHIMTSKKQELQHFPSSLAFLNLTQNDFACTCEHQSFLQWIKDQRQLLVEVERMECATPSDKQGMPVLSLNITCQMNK

pKd [1]: 4.00
pKd [2]: 3.87
SMILES: [NH2][Pt]([NH2])([Cl])[Cl] [cisplatin]

Reference: paper doi:10.1101/2022.07.06.498982v1 (biorxiv, 2022)
